Test results: ChEMBL document CHEMBL1201862, “PubChem BioAssay data set” (2004)
“And” between values parts separate entries of the source, which are not always exact repeats. Equal entries are not always repeated.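 Each compound was tested at five concentrations against cells in 96-well plates for 48 hours. GI50 is the concentration that inhibits growth by half.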 The source made the active and inactive calls. Rule as the data show it: active = GI50 up to about 1.1 µM and inactive = higher.

What was measured:
Assay in all cases: inhibition of tumour cell growth, NCI panel, 48 h
NCI-H522 = system: NCI-H522
CAKI-1 = system: CAKI-1
HCT-116 = system: HCT-116
SNB-78 = system: SNB-78
HT-29 = system: HT-29
ACHN = system: ACHN
TK-10 = system: TK-10
NCI-H226 = system: NCI-H226
M14 = system: M14
IGROV-1 = system: IGROV-1
OVCAR-4 = system: OVCAR-4
786-0 = system: 786-0
RXF 631 = system: RXF 631
SN12C = system: SN12C
DLD-1 = system: DLD-1
SNB-19 = system: SNB-19
OVCAR-5 = system: OVCAR-5
A549 = system: A549
KM-20L2 = system: KM-20L2
SF-268 = system: SF-268
SNB-75 = system: SNB-75
A498 = system: A498
HCC 2998 = system: HCC 2998
M19-MEL = system: M19-MEL
HL-60 = system: HL-60
UACC-62 = system: UACC-62
NCI-H460 = system: NCI-H460
COLO 205 = system: COLO 205
EKVX = system: EKVX
SK-OV-3 = system: SK-OV-3
LOX IMVI = system: LOX IMVI
HOP-18 = system: HOP-18
XF498 = system: XF498
KM12 = system: KM12
Malme-3M = system: Malme-3M
UACC-257 = system: UACC-257
RXF 393 = system: RXF 393
SK-MEL-5 = system: SK-MEL-5
SW-620 = system: SW-620
DMS-114 = system: DMS-114
SK-MEL-28 = system: SK-MEL-28
K562 = system: K562
OVCAR-3 = system: OVCAR-3
DMS-273 = system: DMS-273
NCI-H23 = system: NCI-H23
LXFL 529 = system: LXFL 529
SF-295 = system: SF-295
OVCAR-8 = system: OVCAR-8
U-251 = system: U-251
SR = system: SR
HOP-62 = system: HOP-62
UO-31 = system: UO-31
SK-MEL-2 = system: SK-MEL-2
MOLT-4 = system: MOLT-4
RPMI-8226 = system: RPMI-8226
HOP-92 = system: HOP-92
HCT-15 = system: HCT-15
SF-539 = system: SF-539
CCRF-CEM = system: CCRF-CEM

## COC1OC(COC(C)=O)C(OC(C)=O)C(OC(C)=O)C1NC(=O)N(CCCl)N=O (stereo not drawn)
NCI-H522
  GI50: 24.1 µM (inactive) and 45.9 µM (inactive)
CAKI-1
  GI50: > 100 µM (inactive)
HCT-116
  GI50: > 100 µM (inactive)
SNB-78
  GI50: > 100 µM (inactive)
HT-29
  GI50: > 100 µM (inactive)
ACHN
  GI50: > 100 µM (inactive)
TK-10
  GI50: > 100 µM (inactive)
NCI-H226
  GI50: > 100 µM (inactive)
M14
  GI50: > 100 µM (inactive)
IGROV-1
  GI50: > 100 µM (inactive)
OVCAR-4
  GI50: > 100 µM (inactive)
786-0
  GI50: 54.6 µM (inactive) and 63.4 µM (inactive)
RXF 631
  GI50: > 100 µM (inactive)
SN12C
  GI50: > 100 µM (inactive)
DLD-1
  GI50: > 100 µM (inactive)
SNB-19
  GI50: > 100 µM (inactive) and 69.7 µM (inactive)
OVCAR-5
  GI50: > 100 µM (inactive)
A549
  GI50: > 100 µM (inactive) and 82.4 µM (inactive)
KM-20L2
  GI50: > 100 µM (inactive)
SF-268
  GI50: 26.8 µM (inactive) and 20.3 µM (inactive)
SNB-75
  GI50: 47.1 µM (inactive) and 34.4 µM (inactive)
A498
  GI50: > 100 µM (inactive)
HCC 2998
  GI50: > 100 µM (inactive)
M19-MEL
  GI50: > 100 µM (inactive)
HL-60
  GI50: 30.8 µM (inactive) and 16.1 µM (inactive)
UACC-62
  GI50: 26.2 µM (inactive) and 25.6 µM (inactive)
NCI-H460
  GI50: 63 µM (inactive) and 44.6 µM (inactive)
COLO 205
  GI50: > 100 µM (inactive)
EKVX
  GI50: > 100 µM (inactive)
SK-OV-3
  GI50: > 100 µM (inactive)
LOX IMVI
  GI50: 61.4 µM (inactive) and 47.3 µM (inactive)
HOP-18
  GI50: > 100 µM (inactive)
XF498
  GI50: > 100 µM (inactive)
KM12
  GI50: > 100 µM (inactive)
Malme-3M
  GI50: > 100 µM (inactive)
UACC-257
  GI50: > 100 µM (inactive)
RXF 393
  GI50: > 100 µM (inactive)
SK-MEL-5
  GI50: > 100 µM (inactive)
SW-620
  GI50: > 100 µM (inactive)
DMS-114
  GI50: > 100 µM (inactive)
SK-MEL-28
  GI50: > 100 µM (inactive)
K562
  GI50: 65 µM (inactive)
OVCAR-3
  GI50: > 100 µM (inactive)
DMS-273
  GI50: > 100 µM (inactive)
NCI-H23
  GI50: > 100 µM (inactive)
LXFL 529
  GI50: > 100 µM (inactive)
SF-295
  GI50: 39.1 µM (inactive) and 24.2 µM (inactive)
OVCAR-8
  GI50: > 100 µM (inactive)

## N#CCCN(c1ccc(/C=N/c2ccccc2Cl)cc1)S(=O)(=O)c1ccccc1
U-251
  GI50: > 100 µM (inactive)
NCI-H522
  GI50: > 100 µM (inactive)
CAKI-1
  GI50: > 100 µM (inactive)
HCT-116
  GI50: > 100 µM (inactive)
SNB-78
  GI50: > 100 µM (inactive)
HT-29
  GI50: > 100 µM (inactive)
ACHN
  GI50: > 100 µM (inactive)
TK-10
  GI50: > 100 µM (inactive)
NCI-H226
  GI50: > 100 µM (inactive)
SR
  GI50: > 100 µM (inactive)
M14
  GI50: > 100 µM (inactive)
HOP-62
  GI50: > 100 µM (inactive)
IGROV-1
  GI50: > 100 µM (inactive)
OVCAR-4
  GI50: > 100 µM (inactive)
786-0
  GI50: > 100 µM (inactive)
RXF 631
  GI50: > 100 µM (inactive)
SN12C
  GI50: > 100 µM (inactive)
DLD-1
  GI50: > 100 µM (inactive)
SNB-19
  GI50: > 100 µM (inactive)
OVCAR-5
  GI50: > 100 µM (inactive)
A549
  GI50: > 100 µM (inactive)
KM-20L2
  GI50: > 100 µM (inactive)
SF-268
  GI50: > 100 µM (inactive)
UO-31
  GI50: > 100 µM (inactive)
SNB-75
  GI50: > 100 µM (inactive)
A498
  GI50: > 100 µM (inactive)
HCC 2998
  GI50: > 100 µM (inactive)
M19-MEL
  GI50: > 100 µM (inactive)
SK-MEL-2
  GI50: > 100 µM (inactive)
HL-60
  GI50: > 100 µM (inactive)
UACC-62
  GI50: > 100 µM (inactive)
NCI-H460
  GI50: > 100 µM (inactive)
COLO 205
  GI50: > 100 µM (inactive)
EKVX
  GI50: > 100 µM (inactive)
MOLT-4
  GI50: > 100 µM (inactive)
SK-OV-3
  GI50: > 100 µM (inactive)
LOX IMVI
  GI50: > 100 µM (inactive)
HOP-18
  GI50: > 100 µM (inactive)
XF498
  GI50: > 100 µM (inactive)
RPMI-8226
  GI50: > 100 µM (inactive)
KM12
  GI50: > 100 µM (inactive)
Malme-3M
  GI50: > 100 µM (inactive)
HOP-92
  GI50: > 100 µM (inactive)
HCT-15
  GI50: > 100 µM
UACC-257
  GI50: > 100 µM (inactive)
RXF 393
  GI50: > 100 µM (inactive)
SK-MEL-5
  GI50: > 100 µM (inactive)
SF-539
  GI50: > 100 µM (inactive)
SW-620
  GI50: > 100 µM (inactive)
DMS-114
  GI50: > 100 µM (inactive)
SK-MEL-28
  GI50: > 100 µM (inactive)
K562
  GI50: > 100 µM (inactive)
OVCAR-3
  GI50: > 100 µM (inactive)
DMS-273
  GI50: > 100 µM (inactive)
NCI-H23
  GI50: > 100 µM (inactive)
LXFL 529
  GI50: > 100 µM (inactive)
SF-295
  GI50: > 100 µM (inactive)
OVCAR-8
  GI50: > 100 µM (inactive)

## CCCSS[C@H]1NC(=O)[C@H]1NC(=O)COc1ccccc1
U-251
  GI50: 17.7 µM (inactive)
CAKI-1
  GI50: 17.3 µM (inactive)
HCT-116
  GI50: 10.3 µM (inactive)
SNB-78
  GI50: 25.8 µM (inactive)
HT-29
  GI50: 19.8 µM (inactive)
ACHN
  GI50: 16.6 µM (inactive)
TK-10
  GI50: 27.9 µM (inactive)
SR
  GI50: 3.16 µM (inactive)
M14
  GI50: 12 µM (inactive)
HOP-62
  GI50: > 100 µM (inactive)
IGROV-1
  GI50: 21.1 µM (inactive)
OVCAR-4
  GI50: 17.3 µM (inactive)
786-0
  GI50: 17.4 µM (inactive)
RXF 631
  GI50: 17.5 µM (inactive)
SN12C
  GI50: 15.1 µM (inactive)
DLD-1
  GI50: 11.1 µM (inactive)
CCRF-CEM
  GI50: 3.85 µM (inactive)
SNB-19
  GI50: > 100 µM (inactive)
OVCAR-5
  GI50: 59 µM (inactive)
A549
  GI50: 24.4 µM (inactive)
KM-20L2
  GI50: 20.9 µM (inactive)
SF-268
  GI50: 20 µM (inactive)
UO-31
  GI50: 32.5 µM (inactive)
SNB-75
  GI50: 21.1 µM (inactive)
A498
  GI50: 24.8 µM (inactive)
HCC 2998
  GI50: 15.5 µM (inactive)
M19-MEL
  GI50: 17.9 µM (inactive)
SK-MEL-2
  GI50: 17.9 µM (inactive)
HL-60
  GI50: 2.6 µM (inactive)
UACC-62
  GI50: 17.9 µM (inactive)
NCI-H460
  GI50: 17.6 µM (inactive)
COLO 205
  GI50: 12.3 µM (inactive)
EKVX
  GI50: 20.6 µM (inactive)
MOLT-4
  GI50: 1.28 µM (inactive)
SK-OV-3
  GI50: > 100 µM (inactive)
LOX IMVI
  GI50: 16.4 µM (inactive)
HOP-18
  GI50: 28 µM (inactive)
XF498
  GI50: 17.8 µM (inactive)
RPMI-8226
  GI50: 14 µM (inactive)
KM12
  GI50: 17.2 µM (inactive)
Malme-3M
  GI50: 13.8 µM (inactive)
HOP-92
  GI50: 10.4 µM (inactive)
HCT-15
  GI50: 11.7 µM
UACC-257
  GI50: 14.4 µM (inactive)
RXF 393
  GI50: 16.1 µM (inactive)
SK-MEL-5
  GI50: 22.8 µM (inactive)
SF-539
  GI50: 15.3 µM (inactive)
SW-620
  GI50: 5.74 µM (inactive)
DMS-114
  GI50: 19 µM (inactive)
SK-MEL-28
  GI50: 16.6 µM (inactive)
K562
  GI50: 6.19 µM (inactive)
OVCAR-3
  GI50: 17.3 µM (inactive)
DMS-273
  GI50: 17.4 µM (inactive)
NCI-H23
  GI50: 17.7 µM (inactive)
LXFL 529
  GI50: 5.66 µM (inactive)
SF-295
  GI50: 41.9 µM (inactive)
OVCAR-8
  GI50: 13.9 µM (inactive)
